What was measured:
Assay in all cases: relative viability (nuclei count vs DMSO), 5 days (fraction); higher = more cells survive
XMD14-99 + Phenformin = compound: CN1CCN(CC1)C2=CC(=C(C=C2)NC3=NC(=C(S3)C(=O)C4=C(C=CC=C4Cl)Cl)N)OC [XMD14-99] + N=C(N)NC(=N)NCCc1ccccc1 [Phenformin] (partner 250 µM)
In short: (§1)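 For relative viability, nuclei counts in treated wells were divided by those in vehicle wells. Lung cancer cell lines had been pin-tool dosed in 1536-well plates the day after seeding and cultured for 5 days, then fixed and stained in one step (final 0.05% Triton X-100, 1% formaldehyde, 1 ug/ml Hoechst) and imaged at 4×. Doses were one drug alone or a fixed anchor-drug dose plus five library-drug doses (not always all listed) in √10 steps, and values are duplicate-plate medians.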

AZD1208 + Lapatinib = compound: N[C@@H]1CCCN(c2c(/C=C3\SC(=O)NC3=O)cccc2-c2ccccc2)C1 [AZD1208] + CS(=O)(=O)CCNCc1ccc(-c2ccc3ncnc(Nc4ccc(OCc5cccc(F)c5)c(Cl)c4)c3c2)o1 [Lapatinib] (partner 2 µM)
In short: as §1

AZD1208 + Bortezomib = compound: N[C@@H]1CCCN(c2c(/C=C3\SC(=O)NC3=O)cccc2-c2ccccc2)C1 [AZD1208] + CC(C)C[C@H](NC(=O)[C@H](Cc1ccccc1)NC(=O)c1cnccn1)B(O)O [Bortezomib] (partner 0.002 µM)
In short: as §1

XMD14-99 + Tozasertib = compound: CN1CCN(CC1)C2=CC(=C(C=C2)NC3=NC(=C(S3)C(=O)C4=C(C=CC=C4Cl)Cl)N)OC [XMD14-99] + Cc1cc(Nc2cc(N3CCN(C)CC3)nc(Sc3ccc(NC(=O)C4CC4)cc3)n2)n[nH]1 [Tozasertib] (partner 0.1 µM)
In short: as §1

Cell Line | relative viability (XMD14-99 + Phenformin; first compound 0.08 µM) | relative viability (XMD14-99 + Phenformin; first compound 0.8 µM) | relative viability (XMD14-99 + Phenformin; first compound 2.53 µM) | relative viability (XMD14-99 + Phenformin; first compound 8 µM) | relative viability (AZD1208 + Lapatinib; first compound 0.08 µM) | relative viability (AZD1208 + Lapatinib; first compound 0.253 µM) | relative viability (AZD1208 + Lapatinib; first compound 0.8 µM) | relative viability (AZD1208 + Lapatinib; first compound 2.53 µM) | relative viability (AZD1208 + Lapatinib; first compound 8 µM) | relative viability (AZD1208 + Bortezomib; first compound 0.08 µM) | relative viability (AZD1208 + Bortezomib; first compound 0.253 µM) | relative viability (AZD1208 + Bortezomib; first compound 0.8 µM) | relative viability (AZD1208 + Bortezomib; first compound 2.53 µM) | relative viability (AZD1208 + Bortezomib; first compound 8 µM) | relative viability (XMD14-99 + Tozasertib; first compound 0.08 µM) | relative viability (XMD14-99 + Tozasertib; first compound 0.8 µM) | relative viability (XMD14-99 + Tozasertib; first compound 2.53 µM) | relative viability (XMD14-99 + Tozasertib; first compound 8 µM)
NCI-H322M | 0.787 | 0.834 | 0.699 | 0.627 | 0.574 | 0.568 | 0.507 | 0.578 | 0.56 | 1.21 | 1.31 | 1.21 | 1.15 | 1.25 | 0.501 | 0.488 | 0.558 | 0.414
NCI-H460 | 0.517 | 0.498 | 0.431 | 0.325 | 1.03 | 1.71 | 0.867 | 1.01 | 0.964 | 1.04 | 1.63 | 1.06 | 1.13 | 0.925 | 0.408 | 0.376 | 0.45 | 0.188
NCI-H520 | 0.603 | 0.526 | 0.498 | 0.361 | 0.805 | 1.07 | 0.806 | 0.83 | 0.629 | 0.597 | 0.718 | 0.311 | 0.428 | 0.399 | 0.432 | 0.438 | 0.363 | 0.338
NCI-H596 | 0.799 | 0.883 | 0.733 | 0.784 | 1.05 | 1.1 | 0.967 | 0.984 | 0.835 | 0.578 | 0.857 | 0.98 | 1.01 | 0.878 | 0.881 | 0.839 | 0.892 | 0.803
NCI-H647 | 0.526 | 0.494 | 0.6 | 0.489 | 1.04 | 1.58 | 1.04 | 0.97 | 0.742 | 1.05 | 1.12 | 0.902 | 0.774 | 0.774 | 0.203 | 0.375 | 0.218 | 0.114
NCI-H650 | 0.497 | 0.465 | 0.423 | 0.364 | 1.06 | 0.771 | 1.06 | 0.648 | 0.817 | 1.16 | 0.774 | 0.788 | 0.438 | 0.664 | 0.747 | 0.688 | 0.667 | 0.581
NCI-H661 | 0.292 | 0.272 | 0.263 | 0.296 | 0.397 | 0.425 | 0.396 | 0.383 | 0.46 | 0.665 | 0.817 | 0.724 | 0.759 | 0.852 | 0.355 | 0.337 | 0.37 | 0.338
NCI-H727 | 0.423 | 0.43 | 0.419 | 0.374 | 0.597 | 0.754 | 0.755 | 0.672 | 0.59 | 0.641 | 0.895 | 0.804 | 0.882 | 0.697 | 0.661 | 0.558 | 0.532 | 0.342
NCI-H838 | 0.612 | 0.556 | 0.474 | 0.383 | 0.988 | 1.17 | 0.856 | 0.936 | 0.86 | 0.873 | 0.94 | 0.714 | 0.8 | 0.692 | 0.265 | 0.24 | 0.269 | 0.194

Reference: the supplement of paper PMC10307832
